{"source": "patent US9695155B2", "about": "“Herbicidal substituted pyrimidinyloxy benzene compounds” (E. I. DU PONT DE NEMOURS AND COMPANY, priority 2013, dated 2017)", "assay_in_all_cases": "Test C preemergence", "key": {"[1]": {"test_system": "Italian ryegrass", "type": "in vivo, Lolium multiflorum", "conditions": "preemergence", "text": "(§1) Seeds of plant species selected from blackgrass (Alopecurus myosuroides), Italian ryegrass (Lolium multiflorum), wheat, winter (winter wheat, Triticum aestivum), galium (catchweed bedstraw, Galium aparine), corn (Zea mays), large (Lg) crabgrass (Digitaria sanguinalis), giant foxtail (Setaria faberii), johnsongrass (Sorghum halepense), lambsquarters (Chenopodium album), morningglory (Ipomoea coccinea), yellow nutsedge (Cyperus esculentus), pigweed (Amaranthus retroflexus), ragweed (common ragweed, Ambrosia elatior), soybean (Glycine max), barnyardgrass (Echinochloa crus-galli), oilseed rape (Brassica napus), waterhemp (common waterhemp, Amaranthus rudis), kochia (Kochia scoparia), wild oat (Avena fatua), surinam grass (Brachiaria decumbens), foxtail, green (green foxtail, Setaria viridis), goosegrass (Eleusine indica), bromegrass, downy (downy bromegrass, Bromus tectorum), nightshade (eastern black nightshade, Solanum ptycanthum), cocklebur (common cocklebur, Xanthium strumarium), cupgrass, woolly (woolly cupgrass, Eriochloa villosa), bermudagrass (Cynodon dactylon), sunflower, (common oilseed sunflower, Helianthus annuus), Russian thistle (Salsola kali), and velvetleaf (Abutilon theophrasti) were planted into a blend of loam soil and sand and treated preemergence with test chemicals formulated in a non-phytotoxic solvent mixture which included a surfactant.\n(§2) At the same time, plants selected from these crop and weed species and also barley, winter (winter barley, Hordeum vulgare), windgrass (Apera spica-venti), chickweed (common chickweed, Stellaria media), deadnettle (henbit deadnettle, Lamium amplexicaule), and canarygrass (littleseed canarygrass, Phalaris minor) were planted in pots containing Redi-Earth® planting medium (Scotts Company, 14111 Scottslawn Road, Marysville, Ohio 43041) comprising spaghnum peat moss, vermiculite, wetting agent and starter nutrients and treated with postemergence applications of test chemicals formulated in the same manner. Plants ranged in height from 2 to 18 cm (1- to 4-leaf stage) for postemergence treatments. Treated plants and controls were maintained in a greenhouse for 13 to 15 days, after which time all species were compared to controls and visually evaluated. Plant response ratings, summarized in Table C, are based on a scale of 0 to 100 where 0 is no effect and 100 is complete control. A dash (-) response means no test result."}, "[2]": {"test_system": "yellow nutsedge", "type": "in vivo, Cyperus esculentus", "conditions": "preemergence", "text": "as §1, §2"}, "[3]": {"test_system": "oilseed rape", "type": "in vivo, Brassica napus", "conditions": "preemergence", "procedure,_shortened": "(§3)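 Rated visually on 0–100 (100 = complete control) after 13–15 days under glass. Treatments went onto freshly seeded loam/sand soil or onto emerged plants at the 1- to 4-leaf stage, using a surfactant-containing solvent formulation.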"}, "[4]": {"test_system": "large (Lg) crabgrass", "type": "in vivo, Digitaria sanguinalis", "conditions": "for Crabgrass, Large plant response rating: preemergence", "text": "as §1, §2"}, "[5]": {"test_system": "velvetleaf", "type": "in vivo, Abutilon theophrasti", "conditions": "preemergence", "procedure,_shortened": "as §3"}, "[6]": {"test_system": "corn", "type": "in vivo, Zea mays", "conditions": "for Corn plant response rating: preemergence", "text": "as §1, §2"}, "[7]": {"test_system": "pigweed", "type": "in vivo, Amaranthus retroflexus", "conditions": "preemergence", "text": "as §1, §2"}, "[8]": {"test_system": "blackgrass", "type": "in vivo, Alopecurus myosuroides", "conditions": "for Blackgrass plant response rating: preemergence", "procedure,_shortened": "as §3"}, "[9]": {"test_system": "giant foxtail", "type": "in vivo, Setaria faberii", "conditions": "for Foxtail, Giant plant response rating: preemergence", "procedure,_shortened": "as §3"}, "[10]": {"test_system": "morningglory", "type": "in vivo, Ipomoea coccinea", "conditions": "preemergence", "text": "as §1, §2"}, "[11]": {"test_system": "ragweed", "type": "in vivo, Ambrosia elatior", "conditions": "preemergence", "procedure,_shortened": "as §3"}, "[12]": {"test_system": "barnyardgrass", "type": "in vivo, Echinochloa crus-galli", "conditions": "for Barnyardgrass plant response rating: preemergence", "text": "as §1, §2"}, "[13]": {"test_system": "lambsquarters", "type": "in vivo, Chenopodium album", "conditions": "preemergence", "text": "as §1, §2"}, "[14]": {"test_system": "soybean", "type": "in vivo, Glycine max", "conditions": "preemergence", "procedure,_shortened": "as §3"}, "[15]": {"conditions": "16 g ai/ha, scale 0 to 100 (0 no effect, 100 complete control)"}, "[16]": {"conditions": "62 g ai/ha, scale 0 (no effect) to 100 (complete control)"}, "[17]": {"conditions": "125 g ai/ha, scale 0 (no effect) to 100 (complete control)"}, "[18]": {"conditions": "Preemergence, 31 g ai/ha, scale 0 to 100, 0 no effect, 100 complete control"}}}
{"smiles": "Fc1cnc(Oc2cccc(C(F)F)c2-n2cc(C(F)(F)F)cn2)nc1", "note": "[Compound 164]", "values": [{"measurement": "Ryegrass, Italian plant response rating", "setting": "[1]; [15]", "result": 0}, {"measurement": "Ryegrass, Italian plant response rating", "setting": "[1]; [16]", "result": 65}, {"measurement": "Ryegrass, Italian plant response rating", "setting": "[1]; [17]", "result": 98}, {"measurement": "Nutsedge, Yellow plant response rating", "setting": "[2]; [15]", "result": 0}, {"measurement": "Nutsedge, Yellow plant response rating", "setting": "[2]; [16]", "result": 20}, {"measurement": "Nutsedge, Yellow plant response rating", "setting": "[2]; [17]", "result": 25}, {"measurement": "Oilseed Rape plant response rating", "setting": "[3]; [15]", "result": 70}, {"measurement": "Oilseed Rape plant response rating", "setting": "[3]; [16]", "result": 100}, {"measurement": "Oilseed Rape plant response rating", "setting": "[3]; [17]", "result": 100}, {"measurement": "Crabgrass, Large plant response rating", "setting": "[4]; [15]", "result": 75}, {"measurement": "Crabgrass, Large plant response rating", "setting": "[4]; [16]", "result": 100}, {"measurement": "Crabgrass, Large plant response rating", "setting": "[4]; [17]", "result": 100}, {"measurement": "Plant response rating, Crabgrass, Large", "setting": "[4]; [18]", "result": 85}, {"measurement": "Velvetleaf plant response rating", "setting": "[5]; [15]", "result": 50}, {"measurement": "Velvetleaf plant response rating", "setting": "[5]; [16]", "result": 100}, {"measurement": "Velvetleaf plant response rating", "setting": "[5]; [17]", "result": 100}, {"measurement": "Corn plant response rating", "setting": "[6]; [15]", "result": 0}, {"measurement": "Corn plant response rating", "setting": "[6]; [16]", "result": 5}, {"measurement": "Corn plant response rating", "setting": "[6]; [17]", "result": 45}, {"measurement": "Plant response rating, Corn", "setting": "[6]; [18]", "result": 5}, {"measurement": "Pigweed plant response rating", "setting": "[7]; [15]", "result": 98}, {"measurement": "Pigweed plant response rating", "setting": "[7]; [16]", "result": 100}, {"measurement": "Pigweed plant response rating", "setting": "[7]; [17]", "result": 98}, {"measurement": "Blackgrass plant response rating", "setting": "[8]; [15]", "result": 0}, {"measurement": "Blackgrass plant response rating", "setting": "[8]; [16]", "result": 90}, {"measurement": "Blackgrass plant response rating", "setting": "[8]; [17]", "result": 90}, {"measurement": "Plant response rating, Blackgrass", "setting": "[8]; [18]", "result": 50}, {"measurement": "Foxtail, Giant plant response rating", "setting": "[9]; [15]", "result": 40}, {"measurement": "Foxtail, Giant plant response rating", "setting": "[9]; [16]", "result": 100}, {"measurement": "Foxtail, Giant plant response rating", "setting": "[9]; [17]", "result": 100}, {"measurement": "Plant response rating, Foxtail, Giant", "setting": "[9]; [18]", "result": 95}, {"measurement": "Morningglory plant response rating", "setting": "[10]; [15]", "result": 10}, {"measurement": "Morningglory plant response rating", "setting": "[10]; [16]", "result": 85}, {"measurement": "Morningglory plant response rating", "setting": "[10]; [17]", "result": 100}, {"measurement": "Ragweed plant response rating", "setting": "[11]; [15]", "result": 0}, {"measurement": "Ragweed plant response rating", "setting": "[11]; [16]", "result": 75}, {"measurement": "Ragweed plant response rating", "setting": "[11]; [17]", "result": 85}, {"measurement": "Barnyardgrass plant response rating", "setting": "[12]; [15]", "result": 15}, {"measurement": "Barnyardgrass plant response rating", "setting": "[12]; [16]", "result": 98}, {"measurement": "Barnyardgrass plant response rating", "setting": "[12]; [17]", "result": 100}, {"measurement": "Plant response rating, Barnyardgrass", "setting": "[12]; [18]", "result": 70}, {"measurement": "Lambsquarters plant response rating", "setting": "[13]; [15]", "result": 70}, {"measurement": "Lambsquarters plant response rating", "setting": "[13]; [16]", "result": 100}, {"measurement": "Lambsquarters plant response rating", "setting": "[13]; [17]", "result": 98}, {"measurement": "Soybean plant response rating", "setting": "[14]; [15]", "result": 0}, {"measurement": "Soybean plant response rating", "setting": "[14]; [16]", "result": 65}, {"measurement": "Soybean plant response rating", "setting": "[14]; [17]", "result": 95}]}
